The test system of assay [1] is Huh7.5/J6/JFH1/EMCVIRES/hRlucNeo cell line expressing a bicistronic genotype 2a replicon. Nature of the assay: HCV replicon assay, genotype 2a (Renilla luciferase readout). The assay is classed as cell-based. The settings on record: Hepatitis C virus, genotype 2a replicon in Huh 7.5 cells, 72 h, read-out: Gt2a IC50. From the text: (§1) Anti-viral activity of the compounds of the invention was monitored using an HCV replicon assay. The Huh7.5/Con1/SG-Neo(I)hRluc2aUb cell line persistently expressing a bicistronic genotype 1b replicon in Huh 7.5 cells and the Huh7.5/J6/JFH1/EMCVIRES/hRlucNeo cell line expressing a bicistronic genotype 2a replicon in Huh 7.5 cells were obtained from Apath LLC. These cell lines were used to test inhibition of replicon levels by test compound using Renilla luciferase enzyme activity readout as a measure of viral replication efficiency.
(§2) Briefly, 7000-7500 cells were seeded in 96 well black clear bottom plates and allowed to adhere overnight. The next day each compound was added in triplicate to the cells at the desired concentration with a final DMSO concentration of 0.5%. Cells in media alone and cells incubated without drug with 0.5% DMSO served as controls. The plates were incubated for 72 h at 37° C. prior to running the luciferase assay. Enzyme activity was measured using Renilla-Glo Luciferase Assay kit from Promega as per the manufacturer's instructions. The following equation was used to generate the percent inhibition value for each test concentration.
(§3) The IC50 value was determined using GraphPad Prism and the following equation: Y=Bottom+(Top−Bottom)/(1+10^((LogIC50−X)*Hill slope))
(§4) IC50 values/% inhibitions of compounds were determined 2-3 times in the replicon assays.

Assay [2] concerns Huh7.5/Con1/SG-Neo(I)hRluc2aUb cell line persistently expressing a bicistronic genotype 1b replicon. In words: HCV replicon assay, genotype 1b (Renilla luciferase readout). The assay is classed as cell-based. The settings on record: Hepatitis C virus, genotype 1b replicon in Huh 7.5 cells, 72 h, read-out: Gt1b IC50.
Text: as §1, §2, §3, §4

Molecules are shown by their SMILES.

In the case of `COC(=O)N[C@H](C(=O)N1CCC[C@H]1c1nc(Cl)c(-c2ccc3c(c2)OCC(C)(C)COc2cc(-c4[nH]c([C@@H]5CCCN5C(=O)[C@@H](NC(=O)OC)C(C)C)nc4Cl)ccc2-3)[nH]1)C(C)C` [Compound 7, dimethyl ((2S,2′S)-((2S,2′S)-2,2′-(5,5′-(7,7-dimethyl-7,8-dihydro-6H-dibenzo[f,h][1,5]dioxonine-3,11-diyl)bis(4-chloro-1H-imidazole-5,2-diyl))bis(pyrrolidine-2,1-diyl))bis(3-methyl-1-oxobutane-2,1-diyl))dicarbamate], the IC50 (usually the midpoint of a concentration-inhibition curve) is 0.249 nM in assay [1] and 0.004 nM in assay [2].

For the molecule `COC(=O)N[C@H](C(=O)N1CCC[C@H]1c1ncc(-c2ccc3c(c2)OCCCOc2cc(-c4[nH]c([C@@H]5CCCN5C(=O)[C@@H](NC(=O)OC)C(C)C)nc4Cl)ccc2-3)[nH]1)C(C)C` [Compound 2, methyl ((S)-1-((S)-2-(5-(11-(2-((S)-1-((S)-2-(methoxycarbonyl)amino-3-methylbutanoyl)pyrrolidin-2-yl)-1H-imidazol-5-yl)-7,8-dihydro-6H-dibenzo[f,h][1,5]dioxonin-3-yl)-4-chloro-1H-imidazol-2-yl)pyrrolidin-1-yl)-3-methyl-1-oxobutan-2-yl)carbamate], the IC50 in assay [1] came to 0.053 nM; in assay [2] it was 0.051 nM.

Turning to `COC(=O)N[C@H](C(=O)N1CCC[C@H]1c1nc(Cl)c(-c2ccc3c(c2)OCCCOc2cc(-c4[nH]c([C@@H]5CCCN5C(=O)[C@@H](NC(=O)OC)C(C)C)nc4Cl)ccc2-3)[nH]1)C(C)C` [Compound 3, dimethyl ((2S,2′S)-((2S,2′S)-2,2′-(5,5′-(7,8-dihydro-6H-dibenzo[f,h][1,5]dioxonine-3,11-diyl)bis(4-chloro-1H-imidazole-5,2-diyl))bis(pyrrolidine-2,1-diyl))bis(3-methyl-1-oxobutane-2,1-diyl))dicarbamate], the results for the half-inhibitory concentration (IC50) in assay [1] and in assay [2] were 0.037 nM and 0.018 nM, respectively.

In the case of `COC(=O)N[C@H](C(=O)N1CCC[C@H]1c1ncc(-c2ccc3c(c2)OCC(C)(C)COc2cc(-c4[nH]c([C@@H]5CCCN5C(=O)[C@@H](NC(=O)OC)C(C)C)nc4Cl)ccc2-3)[nH]1)C(C)C` [Compound 6, methyl ((S)-1-((S)-2-(5-(11-(2-((S)-1-((S)-2-(methoxycarbonyl)amino-3-methylbutanoyl)pyrrolidin-2-yl)-4-chloro-1H-imidazol-5-yl)-7,7-dimethyl-7,8-dihydro-6H-dibenzo[f,h][1,5]dioxonin-3-yl)-1H-imidazol-2-yl)pyrrolidin-1-yl)-3-methyl-1-oxobutan-2-yl)carbamate], the 50% inhibitory concentration (IC50) came out at 0.671 nM in assay [1] and 0.021 nM in assay [2].

For the origin of these results see US9073943B2, “Antiviral compounds with a dibenzooxaheterocycle moiety” (Lupin Limited, priority 2012, dated 2015).
